≈ marks a conversion by molar mass, not a printed value. Like-named read-outs stand apart in the source and are kept apart here.
Legend:
[1] = system: PC3 cells; experiment: MTT assay, cytotoxic activity; format: cell-based, human; conditions: Homo sapiens, PC-3, 72 h, MTT, 72 h
Protocol: Metastatic prostate cancer (PC3) and human immortal keratinocyte (HaCaT) cell lines were purchased from the American Type Culture Collection (ATCC, Rockville, MD, USA) and cultured in MEM (minimal essential medium, Thermo Sci, USA), RPMI 1640 (Roswell Park Memorial Institute, Biowest SAS, France), and DMEM (Dulbecco’s Modified Eagle’s Medium, Biowest SAS, France). Cells were seeded in 6 mL medium in a tissue culture flask (50 mL) in a 37 °C/5% CO2 humidified incubator. […] MTT analysis was performed according to a previous study.[59] Untreated cells were used as controls. Cell absorbance results were inserted into the formula for the relative MTT level (%). It allows to calculate the viability of cells under the influence of the tested compounds. Cell viability was expressed as the percentage of MTT reduction in cells treated with tested compounds compared to the control sample. The relative MTT level was calculated using the formula [100%] = A/B × 100% where A—the test sample absorbance and B—the control sample absorbance.

[2] = MTT assay, cytotoxic activity; format: cell-based; conditions: human
Protocol: Cells were seeded in 6 mL medium in a tissue culture flask (50 mL) in a 37 °C/5% CO2 humidified incubator. […] MTT analysis was performed according to a previous study.[59] Untreated cells were used as controls. Cell absorbance results were inserted into the formula for the relative MTT level (%). It allows to calculate the viability of cells under the influence of the tested compounds. Cell viability was expressed as the percentage of MTT reduction in cells treated with tested compounds compared to the control sample. The relative MTT level was calculated using the formula [100%] = A/B × 100% where A—the test sample absorbance and B—the control sample absorbance.

[3] = system: M. tuberculosis H37Rv; experiment: Tuberculostatic activity, Microplate Alamar Blue Assay (MIC); format: cell-based, Mycobacterium tuberculosis; conditions: Mycobacterium tuberculosis, H37RV, read-out: MIC M. tuberculosis H37Rv
[4] = system: M. tuberculosis Spec. 192; experiment: as above; format: cell-based; conditions: Mycobacterium tuberculosis, MABA, read-out: MIC M. tuberculosis Spec. 192 (sensitive to tuberculostatics)

COc1cccc2c1C(=O)c1c(O)c3c(c(O)c1C2=O)C[C@@](O)(C(=O)CO)C[C@@H]3O[C@H]1C[C@H](N)[C@H](O)[C@H](C)O1 [doxorubicin, reference compound]
IC50 [1]: 300 ± 120 nM | IC50 at 72 h [2]: 300 ± 110 nM

CC[C@@H](CO)NCCN[C@@H](CC)CO [ethambutol(EMB), ethambutol, reference compound]
MIC ([3]; MABA): 2 µg/mL (≈ 9.79 µM) | MIC [4]: 2 µg/mL (≈ 9.79 µM)

NNC(=O)c1ccncc1 [isoniazid (INH), isoniazid, reference compound]
MIC [3]: 0.125 µg/mL (≈ 0.911 µM) | MIC [4]: 0.125 µg/mL (≈ 0.911 µM)

CO[C@H]1/C=C/O[C@@]2(C)Oc3c(C)c(O)c4c(O)c(c(/C=N/N5CCN(C)CC5)c(O)c4c3C2=O)NC(=O)/C(C)=C\C=C\[C@H](C)[C@H](O)[C@@H](C)[C@@H](O)[C@@H](C)[C@H](OC(C)=O)[C@@H]1C [rifampicin (RMP), rifampicin, reference compound]
MIC ([3]; MABA): 1 µg/mL (≈ 1.22 µM) | MIC [4]: 1 µg/mL (≈ 1.22 µM)

[H]/N=C(/N)N[C@H]1[C@H](O)[C@@H](O)[C@H](O[C@@H]2O[C@@H](C)[C@](O)(C=O)[C@H]2O[C@@H]2O[C@@H](CO)[C@H](O)[C@@H](O)[C@@H]2NC)[C@@H](N/C(N)=N\[H])[C@@H]1O [streptomycin (SM), streptomycin, reference compound]
MIC ([3]; MABA): 1 µg/mL (≈ 1.72 µM) | MIC [4]: 1 µg/mL (≈ 1.72 µM)

Source: article PMC10233829 (ACS Omega, 2023)
